Read-outs that look alike come from different tables or passages of the source.
Legend:
[1] = tested on: polymorphonuclear leukocytes (PMNs); test: H-PMN Assay: LTB4 content of supernatant of A23187-stimulated human PMNs by radioimmunoassay; type: cell-based; details: Leukocyte
Experimental: Sodium citrated venous blood is drawn from normal human subjects. After centrifugation at 300 ×g for 15 minutes, the platelet-rich layer of plasma is discarded and an equal volume of Hanks' balanced salt solution (HBSS) is added to the enriched cell fraction. This platelet-depleted cell suspension is then layered on an equal volume of Ficoll-Paque. After centrifugation for 40 minutes at 300 ×g, the bottom layer containing erythrocytes and polymorphonuclear leukocytes (PMNs) is diluted with two volumes of a 0.2% methocel solution. The erythrocytes are sedimented upon standing for 15 minutes, and the supernatant containing the PMNs is aspirated and centrifuged at 300 ×g, for 5 minutes. The cell pellet is then exposed to 0.2% NaCl for 30 seconds to lyse any remaining erythrocytes, and the ionic strength of the suspension is readjusted to 0.9% with NaCl. The PMNs are recovered by centrifugation at 300 ×g for 5 minutes and are suspended in HBSS to a concentration of 2 ×10^6 cells/ml.
The test compounds are dissolved in and diluted with dimethylsulfoxide (DMSO) which also contains 2×10^-6 M of the calcium ionophore, A23187. To 1 ml of the PMN suspension, 10 μl of the DMSO solution is added, and the mixture is incubated at 37° C. for 10 minutes. The PMNs are rapidly pelleted in a microcentrifuge, and the supernatant is kept at -20° C. for future determination of LTB4 content via the radioimmunoassay.

5-lipoxygenase = target: T1, 5-lipoxygenase (Cavia porcellus, UniProt A0A286X958); test: 5-Lipoxygenase (5-LO) Assay: 5-HETE formation in supernatant of guinea pig PMNL sonicate; type: biochemical
T1 construct: 0.2 ml of the supernatant obtained from the PMNL sonicate; endogenous in cells; host or cells: casein-elicited guinea pig peritoneal polymorphonuclear leukocytes (PMNL), sonicate, 30,000 x g supernatant
T1 sequence (A0A286X958 1-674): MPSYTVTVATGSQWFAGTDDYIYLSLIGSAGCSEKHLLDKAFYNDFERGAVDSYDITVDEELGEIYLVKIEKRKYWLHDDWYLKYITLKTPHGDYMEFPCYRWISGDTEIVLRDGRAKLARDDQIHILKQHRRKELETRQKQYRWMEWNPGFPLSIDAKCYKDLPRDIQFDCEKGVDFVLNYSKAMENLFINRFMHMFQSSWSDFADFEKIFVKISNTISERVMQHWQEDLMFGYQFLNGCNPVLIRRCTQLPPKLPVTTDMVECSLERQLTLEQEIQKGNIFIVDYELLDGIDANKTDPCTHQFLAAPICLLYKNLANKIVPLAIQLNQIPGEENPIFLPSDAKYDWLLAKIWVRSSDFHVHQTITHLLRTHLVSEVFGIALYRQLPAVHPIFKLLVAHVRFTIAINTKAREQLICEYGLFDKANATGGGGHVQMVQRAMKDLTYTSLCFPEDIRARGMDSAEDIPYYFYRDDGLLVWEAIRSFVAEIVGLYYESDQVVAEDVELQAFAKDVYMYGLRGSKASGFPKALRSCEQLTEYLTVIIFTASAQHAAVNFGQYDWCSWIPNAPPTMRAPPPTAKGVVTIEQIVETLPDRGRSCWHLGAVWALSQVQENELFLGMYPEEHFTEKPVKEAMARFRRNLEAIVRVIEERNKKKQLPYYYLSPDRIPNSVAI
Experimental: Ten milliliters of a 2% casein solution is injected intraperitoneally to guinea pigs weighing 250-300 gm. After 16-18 hours, the guinea pigs are killed by suffocation in a carbon dioxide chamber. The peritoneal cavity is infused with 70 ml of saline and 40-50 ml of the fluid is recovered from the cavity. After centrifugation, cell pellets are washed twice in Hank's balanced salt solution (HBSS) without calcium ion.
The cells are then suspended in 5 ml of sodium phosphate buffer, pH 7.1 containing 1 mM, ethylene diamine tetraacetic acid (EDTA), and 0.1% gelatin. About 20-30×10^7 cells are obtained from one guinea pig.
The PMNL suspension is disrupted by five 1/2-second pulse sonication at the setting of 3 in a Branson Sonifier, Model 350, equipped with a microtip. The sonicates are combined and centrifuged at 30,000 ×g for 10 minutes. The supernatant is kept frozen at -70° C. until use.
Enzyme activity is determined by assaying for 5-hydroxy-6,8,11,14-eicosatetraenoic acid (5-HETE) formation by first incubating 0.2 ml of the supernatant obtained from the PMNL sonicate with the test compound, 1 mM CaCl2, 2 mM ATP, and 1 mM GSH for 5 minutes at 37° C. The mixture is treated with […] ^14 C-arachidonic acid and incubated at 37° C. an additional 10 minutes. The enzyme reaction is then stopped by the addition of 10 μl of 1M citric acid and 10 μl of an alcohol solution containing 20 mg/ml each of indomethacin and butylated hydroxyanisole (BHA). The reaction mixture is spotted (50 μl) on a silica gel plate (Baker TLC plate S1250-PA-19C) and subjected to TLC in a solvent system of ethyl acetate/2,2,4-trimethylpentane/glacialacetic acid/H2 O (90:50:20:100).
The radioactivity of the arachidonic acid and its metabolites (5-HETE and LTB4) is visualized from a developed x-ray film which had been exposed to the TLC plate 1-2 days. The amount of 5-HETE formed is quantitated by scraping the silica gel area corresponding to the spot on the x-ray film, and the radioactivity determined in a Isocap/300 liquid scintillation counter (Searle Analytic, Inc.).
The percent inhibition of the formation of 5-HETE is determined for each concentration of compound tested as compared to a control experiment wherein no test compound is added. The concentration and percent values are plotted on semi log paper and the concentration in which formation of 5-HETE is inhibited by 50% (IC50) is determined by interpolation.

[2] = 10 min, Table II, human PMNs, calcium ionophore A23187, 37° C. for 10 minutes, LTB4 by radioimmunoassay
[3] = Table II, guinea pig PMNL sonicate supernatant, 14C-arachidonic acid, 37° C., read-out: 5-LO (concentration in which formation of 5-HETE is inhibited by 50%, IC50)
[4] = Homo sapiens, second table (Table III), known hydroxamic acid derivatives as comparison
[5] = second table (Table III), known hydroxamic acid derivatives as comparison, read-out: 5-Lo (IC50)

IC50 [1, 2]	IC50 (5-lipoxygenase; [3])	IC50 [1, 4]	IC50 (5-lipoxygenase; [5])	Structure (SMILES)
100 nM	392 nM			CSc1ccccc1C=CC(=O)N(C)O [Example 23, 2-methylthio-N-hydroxy-N-methyl-cinnamamide]
18 nM	26 nM			CSc1ccc(CCCc2ccccc2)cc1C=CC(=O)N(C)O [Example 27, 2-(methylthio)-5-(3-phenylpropyl)-N-hydroxy-N-methylcinnamamide]
58 nM	94 nM			CCCCSc1ccc(CCCc2ccccc2)cc1C=CC(=O)N(C)O [Example 29, 2-n-butylthio-5-(3-phenylpropyl)-N-hydroxy-N-methylcinnamamide]
46 nM	59 nM			CCc1ccc(CCCc2ccccc2)cc1C=CC(=O)N(C)O [Example 30, 2-ethyl-5-(3-phenylpropyl)-N-hydroxy-N-methylcinnamamide]
7 nM	33 nM			CN(O)C(=O)C=Cc1ccccc1SCc1ccccc1 [Example 31, 2-benzylthio-N-hydroxy-N-methylcinnamamide]
22 nM	47 nM			CCCCSc1ccccc1C=CC(=O)N(C)O [Example 33, 2-(n-butylthio)-N-hydroxy-N-methylcinnamamide]
16 nM	9 nM			CN(O)C(=O)C=Cc1ccccc1SCCCc1ccccc1 [Example 35, 2-[1-(3-phenylpropyl)thio]-N-hydroxy-N-methylcinnamamide]
28 nM	53 nM			CN(O)C(=O)C=Cc1ccccc1Cc1ccccc1 [Example 37, 2-benzyl-N-hydroxy-N-methylcinnamamide]
11 nM	28 nM			CCCCCCCCSc1ccccc1C=CC(=O)N(C)O [Example 38, 2-n-octylthio-N-hydroxy-N-methylcinnamamide]
17 nM	52 nM			CC(C)CSc1ccccc1C=CC(=O)N(C)O [Example 40, 2-[1-(2-methylpropyl)thio]-N-hydroxy-N-methylcinnamamide]
12 nM	60 nM			CN(O)C(=O)C=Cc1ccccc1CCCc1ccccc1 [Example 43, 2-(3-phenylpropyl)-N-hydroxy-N-methylcinnamamide]
17 nM	31 nM			CN(O)C(=O)C=Cc1ccccc1SCCCCCC(F)(F)F [Example 44, 2-[1-(5-trifluoromethylpentyl)thio]-N-hydroxy-N-methylcinnamamide]
20 nM	58 nM			CCCCCCc1ccc(SC)c(C=CC(=O)N(C)O)c1 [Example 45, 2-methylthio-5-n-hexyl-N-hydroxy-N-methylcinnamamide]
		143 nM	1200 nM	COc1ccccc1C=CC(=O)N(C)O [reference compound]
		440 nM	178 nM	CCCCSc1ccc(CCCc2ccccc2)cc1C(=O)N(C)O [reference compound]
		42 nM	54 nM	CN(O)C(=O)C=Cc1ccccc1OCc1ccccc1 [reference compound]
		52 nM	41 nM	CCCCOc1ccccc1C=CC(=O)N(C)O [reference compound]

Reference: patent US5028629A, “5-Lipoxygenase inhibitors” (Eli Lilly and Company, priority 1990, dated 1991)
